The text below walks through data of patent publication US4139621A, “N-(4-substituted-3,5-dichloro-phenyl)-piperazines” (Beecham Group Limited, priority 1976, dated 1979).

A short description of series [1]: Shuttlebox (conditioned avoidance behaviour in the rat), % inhibition of crossing rate. It counts as in vivo. How it is done: (§1) 1-(3,4,5-Trichlorophenyl)piperazine hydrochloride [compound A] was tested in various conventional screens used for determining the effect of major tranquillizors. In these tests chlopromazine was used as a positive control. The results obtained were as follows:
(§2) The activity of Compound A in the anti-catapresan induced fighting test and the inhibition of conditioned avoidance responses in the shuttlebox tests indicate that Compound A has potential neuroleptic/anxiolytic activity in man.

Series [2] can be described thus: Induction of catalepsy in the rat. It counts as in vivo. The protocol:
as §1
catalepsy in 0% at 54% at
the rat. 40 mg/kg s.c. 10 mg/kg i.p.
as §2

Series [3] is described as follows: Anti-Catapresan test (anti-catapresan induced fighting test). It counts as in vivo. The conditions noted are these: po; mouse. The protocol:
as §1, §2

Series [4] is described as follows: Activity in man extrapolated from potency relative to chlorpromazine in animal tests. The conditions noted are these: orally, inferred from potency relative to chlorpromazine in animal tests.
Source text: as §2

Take `CN(C)CCCN1c2ccccc2Sc2ccc(Cl)cc21` [Chlorpromazine, chlorpromazine, reference compound]: in series [1] (10 mg/kg p.o.), the “% inhibition of crossing rate, Shuttlebox” value is given as -67%. Also, the Induction of catalepsy in series [2] (10 mg/kg i.p.) came out at 54%. In series [3], this molecule gave a 50% effective dose (ED50) of 2.8 mg/kg.

Consider `Cl.Clc1cc(N2CCNCC2)cc(Cl)c1Cl` [Compound A, 1-(3,4,5-Trichlorophenyl)piperazine hydrochloride], for which, in series [4], the “daily doses at which active in man” value is 0.2 to 10 mg/kg. Besides, in series [1] (5 mg/kg p.o.), the “% inhibition of crossing rate, Shuttlebox” value is reported as -73%. Further, the cataleptic activity entry in series [2] was “lack of cataleptic activity”. This molecule also yielded an Induction of catalepsy in series [2] (40 mg/kg s.c.) of 0%. This molecule also came in with an ED50 in series [3] of 6 mg/kg.

As usually defined, the ED50 is the dose at which the effect has come halfway, by size or by number of responders. Higher therefore signals a need for a large dose.
